Measured values: US20220127298A1, “THERMOSPOROTHRIX HAZAKENSIS-DERIVED ANTIBACTERIALLY ACTIVE SUBSTANCE” (KENNAN EISEI KOGYO CO., LTD., priority 2019, published 2022)
In brackets after ≈: the same amount, converted by molar mass.

How the values were obtained:
Type in all cases: cell-based
[1] = tested on: Geobacillus stearothermophilus ATCC 7953; experiment: Antibacterial spectrum test, paper disk assay; conditions: 50 μL of 1000 γ solution in methanol, LB agar, 60° C., 18 hours
Description: The antibacterial activity of HK-1 was assayed using a paper disk against the following bacterial bodies. A piece of ice was taken out of a glycerol stock of G. stearothermophilus stored at -80° C. and […] inoculated on the LB agar culture medium (see Example 1) with a toothpick. This was incubated at 60° C. for 18 hours. After the incubation, 1⁄2 platinum loop of the culture was harvested and suspended in 500 μL of sterile water. The bacterial suspension was diluted 10-fold with sterile water. Onto a LB agar culture medium, 100 μL of the diluted suspension was dropped and spread until it was dried up. A piece of paper disk was placed on a filter paper, onto which 50 μL of a HK-1 solution adjusted to 1000 γ with methanol was dropped and dried. Then the disk was placed on the agar culture medium coated with the bacterial body. After incubation at 60° C. for 18 hours, the diameter of the inhibition ring was measured.

Streptomyces sp. AGRN-8 = experiment: Antibacterial spectrum test, paper disk assay; conditions: 50 μL of 1000 γ solution in methanol, BM medium, 45° C., 2 days
Description: (§1) The antibacterial activity of HK-1 was assayed using a paper disk against the following bacterial bodies.
(§2) A piece of ice out of a glycerol stock of S. griseus stored at −80° C. was planarly inoculated on the YMPD agar culture medium with a toothpick. This was incubated at 28° C. for 5 days. After the incubation, a small amount of spore was scraped off with a swab, and planarly inoculated on the YMPD culture medium. A piece of paper disk was placed on a filter paper, onto which 50 μL of a HK-1 solution adjusted to 1000 γ with methanol was dropped and dried. Then the disk was placed on the agar culture medium coated with the bacterial body. After incubation at 28° C. for 4 days, the diameter of the inhibition ring was measured.
(§3) Assays were performed in the same manner as in 3 above, except that the incubation conditions were changed to BM culture medium, 45° C., and 2-day period.

Streptomyces sp. AGRN-9 = experiment: Antibacterial spectrum test, paper disk assay; conditions: 50 μL of 1000 γ solution in methanol, BM medium, 45° C., 2 days
Description: as §1, §2, §3

[2] = tested on: Geobacillus stearothermophilus 111499 MERCK (ATCC 7953); experiment: Measurement of minimum inhibitory concentration, dilution method with liquid culture medium; conditions: ATCC7953, LB liquid medium, 60° C., 135 rpm, 18 hours, visual observation and OD600
From the text: The minimum inhibitory concentration (MIC) is one of the antibiotic susceptibility tests, and means the minimum concentration of an antimicrobial substance at which the visible growth of a microorganism can be inhibited. In the research field, the MIC measurement is used, for example, to compare the effects of a new antibiotic substance and a conventional substance, or to examine actions on several strains, and is regarded as an important criterion for evaluating antibiotic substances. The MIC of “HK-1” which was obtained hereunder as the antibacterial active substance was measured using the dilution method with a liquid culture medium.
A piece of ice out of a glycerol stock of G. stearothermophilus stored at −80° C. was planarly inoculated on the LB agar culture medium with a toothpick. This was incubated at 60° C. for 18 hours. One (1) cm^2 of the culture medium was excavated with a toothpick, placed into a long test tube containing 10 mL of a liquid LB culture medium, and subjected to a shaking culture at 60° C., and 300 rpm, for 18 hours. The culture solution was diluted with sterile water to about McF standard No. 1.
Two (2) mg of HK-1 was weighed out into a 2 mL Eppendorf tube using an electric balance. To this Eppendorf tube, 2 mL of methanol was added to dissolve the HK-1 to form a […] solution. The solution was filtrated through a sterilized […] filter. […]

[3] = tested on: Bacillus subtilis NBRC 3134^T; experiment: Heat resistance test A, antibacterial activity as index; conditions: 1000 γ solution, pH adjusted to 9, 98° C. for 5 min; FIG. 4-1
Description: (§4) Examples of a typical test for measuring the stability of a compound include pH stability test, as well as heat resistance test, and storage test. This information is also regarded as important in evaluating the compound as described above. Using the sample of HK-1 prepared in the above “3. Antibacterial activity test in changing pH”, experiments were carried out to examine whether the compound is stable or not using G. stearothermophilus and B. subtilis guided by the antibacterial activity as the index.
(§5) Three hundred (300) μL of the 1000 γ HK-1 solution (pH 9, and pH not adjusted) prepared in the above “3. Antibacterial activity test in changing pH” was dispensed into a 1 mL microtube. The opening of the tube was closed hermetically with parafilm and heated in the bath at 98° C. for 5 min. An assay was performed using the culture medium for assaying antibacterial activity prepared in “3. Antibacterial activity test in changing pH” above.

[4] = tested on: Geobacillus stearothermophilus ATCC 7953; experiment: as above; conditions: 1000 γ solution, pH adjusted to 9, 98° C. for 5 min; FIG. 4-1
Description: as §4, §5

[5] = tested on: Bacillus subtilis NBRC 3134^T; experiment: Heat resistance test B (storage), antibacterial activity as index; conditions: FIG. 4-2
Description: as §4
(§6) One (1) mL each of two samples prepared in the above “3. Antibacterial activity test in changing pH” was dispensed into two 1-mL micro tubes. The openings of total four tubes were closed hermetically with parafilm, and each one is shielded with an aluminum foil, and stored in a freezer set at −28° C., or an incubator set at 28° C. and 50° C. Each sample was assayed 1, 3, 6, 12, and 24 days after the initiation of the storage using the culture medium for assaying antibacterial activity prepared in “3. Antibacterial activity test in changing pH” above.

[6] = tested on: Geobacillus stearothermophilus ATCC 7953; experiment: as above; conditions: FIG. 4-3
Description: as §4, §6

[7] = pH not adjusted, storage at −28° C., 28° C., 50° C., 1 to 24 days
[8] = two samples (pH 9, pH not adjusted), stored at −28° C., 28° C. and 50° C., after 24 days

COc1cc(OOc2cc(OC)c3c(c2-c2c(O)c(Cl)c(C)c4c2C(O)c2c(Cl)c(O)cc(O)c2C4=O)C(OC2OC(C)C(O)C2O)c2c(Cl)c(OC)c(Cl)c(C)c2C3=O)c(-c2c(O)c(Cl)c(C)c3c2C(O)c2c(Cl)c(O)cc(O)c2C3=O)c2c1C(=O)c1c(C)c(Cl)c(OC)c(Cl)c1C2OC1OC(C)C(O)C1O (stereo not shown) [HK-1]
inhibition ring diameter [1]: 34.0 mm | inhibition ring diameter (Streptomyces sp. AGRN-8): 16.0 mm | inhibition ring diameter (Streptomyces sp. AGRN-9): 19.0 mm | MIC [2]: 0.78 µg/mL (≈ 0.474 µM) | antibacterial effect after heating at high temperature [3]: the antibacterial effect was not lost | antibacterial effect after heating at high temperature [4]: the antibacterial effect was not lost | difference in antibacterial activity due to the storage temperature [5, 7]: no significant difference | antibacterial activity after storage [5, 8]: not lost | difference in antibacterial activity due to the storage temperature [6, 7]: no significant difference | antibacterial activity after storage [6, 8]: not lost
